# Legend:
# Experiment in all cases: relative viability (nuclei count vs DMSO), 5 days (fraction); higher = more cells survive
# [1] = compound: Nc1ccccc1NC(=O)c1ccc(CNC(=O)OCc2cccnc2)cc1 [Entinostat] + Nc1ncn([C@H]2C[C@H](O)[C@@H](CO)O2)c(=O)n1 [Decitabine] (partner 2 µM)
# Procedure, shortened: (§1)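 Relative viability equals treated-well nuclei counts divided by vehicle-well nuclei counts. Counts came from 4× images of lung cancer cell lines grown in 1536-well plates for 5 days after pin-tool dosing on the day after seeding. Dosing used one drug alone or a fixed anchor-drug dose plus five library-drug doses (not always all listed) in √10 steps, and values are medians of duplicate plates.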
# [2] = compound: Nc1ccccc1NC(=O)c1ccc(CNC(=O)OCc2cccnc2)cc1 [Entinostat] + NC(=O)Nc1cc(-c2cccc(F)c2)sc1C(=O)N[C@H]1CCCNC1 [AZD7762] (partner 0.2 µM)
# Procedure, shortened: as §1
# [3] = compound: Nc1ccccc1NC(=O)c1ccc(CNC(=O)OCc2cccnc2)cc1 [Entinostat] + O=C(CCCCCCC(=O)Nc1ccccc1)NO [Vorinostat] (partner 1 µM)
# Procedure, shortened: as §1
# [4] = compound: CN1CCC(CNc2ccc3ncc(-c4cccc(OC(F)(F)F)c4)n3n2)CC1 [SGI-1776] + CC1(C)CCC(c2ccc(Cl)cc2)=C(CN2CCN(c3ccc(C(=O)NS(=O)(=O)c4ccc(N[C@H](CCN5CCOCC5)CSc5ccccc5)c(S(=O)(=O)C(F)(F)F)c4)cc3)CC2)C1 [Navitoclax] (partner 0.5 µM)
# Procedure, shortened: as §1
Cell Line,relative viability ([1]; first compound 0.02 µM),relative viability ([1]; first compound 0.06325 µM),relative viability ([1]; first compound 0.2 µM),relative viability ([1]; first compound 0.6325 µM),relative viability ([1]; first compound 2 µM),relative viability ([2]; first compound 0.02 µM),relative viability ([2]; first compound 0.06325 µM),relative viability ([2]; first compound 0.2 µM),relative viability ([2]; first compound 0.6325 µM),relative viability ([2]; first compound 2 µM),relative viability ([3]; first compound 0.02 µM),relative viability ([3]; first compound 0.06325 µM),relative viability ([3]; first compound 0.2 µM),relative viability ([3]; first compound 0.6325 µM),relative viability ([3]; first compound 2 µM),relative viability ([4]; first compound 0.08 µM),relative viability ([4]; first compound 0.8 µM),relative viability ([4]; first compound 2.53 µM),relative viability ([4]; first compound 8 µM)
LXF-289,0.422,0.381,0.446,0.358,0.31,1.05,1.14,1.07,0.952,0.473,0.784,0.784,0.731,0.526,0.381,0.966,0.989,0.963,0.983
BEN,0.774,0.956,0.657,0.447,0.345,0.771,0.714,0.685,0.602,0.464,0.632,0.571,0.553,0.459,0.384,0.0663,0.049,0.0583,0.0494
NCI-H1993,0.537,0.54,0.559,0.645,0.466,0.777,0.741,0.69,0.468,0.366,0.841,0.661,0.73,0.453,0.351,0.95,0.945,0.832,0.56
NCI-H460,0.438,0.372,0.203,0.0553,0.0422,0.65,0.651,0.559,0.233,0.0734,0.751,0.567,0.245,0.052,0.0296,1.12,1.13,1.07,1.19
LCLC-97TM1,0.23,0.213,0.314,0.163,0.16,0.246,0.283,0.283,0.281,0.243,0.65,0.742,0.588,0.398,0.161,0.533,0.528,0.314,0.355
HCC-78,0.823,0.726,0.595,0.594,0.371,0.609,0.687,0.466,0.327,0.254,0.44,0.435,0.441,0.33,0.281,0.816,0.766,0.812,0.66
NCI-H1975,0.358,0.35,0.301,0.169,0.155,0.628,0.612,0.669,0.476,0.395,0.692,0.651,0.509,0.347,0.211,1.21,1.06,0.883,0.817

# Reference: the supplement of paper PMC10307832
